The target of this test is JAK1 (Homo sapiens (Human), UniProt P23458). Description: JAK LanthaScreen Kinase Assay (TR-FRET), JAK1 in vitro enzyme assay. It is filed as biochemical. The following applies: 20.0 μM ATP. The method, then:
The JAK LanthaScreen™ Kinase Assay (Invitrogen) is used to determine the ability of test compounds to inhibit JAK1, JAK2, and JAK3 kinase activity. These are TR-FRET assay formats that use long-lifetime terbium labeled antibody as the donor species and GFP-STAT1 as the acceptor species. Use the TR-FRET ratio to monitor JAK kinase activity where an increase in phosphorylation of the GFP-STAT1 results in an increase in the TR-FRET ratio. Perform the kinase reaction using a 12.5 μl reaction volume in shallow black 384-well Proxiplate®. Add reagents to obtain final reaction conditions of […], 1.76 mM Triton X-100, ATP (20.0 μM for JAK1 and JAK3 or 5 μM for JAK2) enzyme assays, 10.0 mM MgCl2, 1 mM EGTA and 0.01% Brij-35, […] GFP-STAT1, 14 nM JAK1 enzyme for JAK1, 1.0 nM for JAK2 or 2.5 nM for JAK3 enzyme assays, and 4% DMSO and serial dilutions of test compound (diluted 1:3 from 20,000 to 1 nM). Following ATP/GFP-STAT1 addition, centrifuge the assay plates for 1 minute at 1000 revolutions per minute (RPM). Allow the plates to incubate at RT for 60 minutes and then add 12.5 μl of a stopping buffer containing 20 mM EDTA, 2 nM Terbium-anti-phosphorylated Signal Transducers and Activators of Transcription [phosphorylation Tyrosine 701 amino acid] […] Use ACTIVITYBASE® 4.0 to fit the percent inhibition and ten-point compound concentration data to a four-parameter logistic equation.
In general terms: In TR-FRET formats the signal depends on donor and acceptor labels being close together.

As usually defined, the IC50 is the point on the concentration scale where inhibition reaches its midpoint. High values mean lower potency, low ones higher potency.

The structures appear in SMILES notation.

Sequence of JAK1 (P23458 whole entry): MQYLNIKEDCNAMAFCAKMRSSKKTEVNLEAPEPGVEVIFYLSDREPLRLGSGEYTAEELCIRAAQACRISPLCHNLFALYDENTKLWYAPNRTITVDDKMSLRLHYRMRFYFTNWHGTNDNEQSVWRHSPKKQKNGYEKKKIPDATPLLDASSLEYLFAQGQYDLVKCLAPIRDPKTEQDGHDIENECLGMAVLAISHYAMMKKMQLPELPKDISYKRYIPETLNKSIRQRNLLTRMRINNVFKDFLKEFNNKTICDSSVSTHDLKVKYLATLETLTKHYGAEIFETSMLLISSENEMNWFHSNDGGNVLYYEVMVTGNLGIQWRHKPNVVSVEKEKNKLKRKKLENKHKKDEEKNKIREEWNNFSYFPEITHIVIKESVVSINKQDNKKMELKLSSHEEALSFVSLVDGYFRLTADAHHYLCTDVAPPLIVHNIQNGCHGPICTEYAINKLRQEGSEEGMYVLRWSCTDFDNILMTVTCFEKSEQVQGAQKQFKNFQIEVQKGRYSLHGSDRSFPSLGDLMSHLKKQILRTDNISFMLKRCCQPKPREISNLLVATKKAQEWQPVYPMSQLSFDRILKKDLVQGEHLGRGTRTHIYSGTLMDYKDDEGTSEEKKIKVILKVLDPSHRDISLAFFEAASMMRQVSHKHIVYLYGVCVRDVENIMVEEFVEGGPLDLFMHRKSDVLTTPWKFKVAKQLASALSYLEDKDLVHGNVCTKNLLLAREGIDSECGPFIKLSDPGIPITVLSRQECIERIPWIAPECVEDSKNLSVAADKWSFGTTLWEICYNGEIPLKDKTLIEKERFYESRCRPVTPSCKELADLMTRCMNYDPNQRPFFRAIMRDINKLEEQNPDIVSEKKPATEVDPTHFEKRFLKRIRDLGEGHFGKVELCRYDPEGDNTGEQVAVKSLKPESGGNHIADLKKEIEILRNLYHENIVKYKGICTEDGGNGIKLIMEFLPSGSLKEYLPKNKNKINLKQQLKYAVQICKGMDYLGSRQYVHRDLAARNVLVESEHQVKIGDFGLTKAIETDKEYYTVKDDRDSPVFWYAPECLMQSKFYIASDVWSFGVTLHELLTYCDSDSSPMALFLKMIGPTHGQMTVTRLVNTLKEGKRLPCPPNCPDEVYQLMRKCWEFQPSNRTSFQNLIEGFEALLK

The compound `COc1cc(Nc2cc(O[C@H]3CC[C@@H](NC[C@@H](O)C(F)(F)F)CC3)cc3c2ncn3C)nn1C` [Example 6, (2R)-1,1,1-Trifluoro-3-{[cis-4-({4-[(5-methoxy-1-methyl-1H-pyrazol-3-yl)amino]-1-methyl-1H-benzimidazol-6-yl}oxy)cyclohexyl]amino}propan-2-ol] had a half-inhibitory concentration (IC50) of 5.25 ± 1.11 nM.

Source of the values: patent US10323019B2, “Pyrazolylaminobenzimidazole derivatives as JAK inhibitors” (Eli Lilly and Company, priority 2016, dated 2019).
